From patent publication US20250042889A1, “3CLPRO PROTEASE INHIBITOR” (SHANGHAI QILU PHARMACEUTICAL RESEARCH AND DEVELOPMENT …, priority 2021, published 2025) come the findings set out here.

The target of this assay is SARS-COV-2 3CLpro/Mpro protease (Severe acute respiratory syndrome coronavirus 2 (2019-nCoV) (SARS-CoV-2), UniProt P0DTD1). Nature of the assay: Inhibitory effect on SARS-COV-2 3CLpro/Mpro protease by fluorescence resonance energy transfer. The format is biochemical. As to conditions: activity intervals A-D.
Setting [1] is: read-out: IC50 (nM), Inhibition on SARS-CoV-2 3CLpro/Mpro protease.

Read-outs that look alike come from different tables or passages of the source.

In the case of `O=C(c1cc(Br)cc([N+](=O)[O-])c1N[C@@H]1CCCN(C(=O)C2CNCC(F)(F)C2)C1)N1CCCCC1` (some centres unmarked) [Example 296], the IC50 under setting [1] was in the range of 10 to 50 nM.
As for `Cc1cc(C(=O)N2C[C@H](Nc3c(C(=O)NCc4ccc(Cl)cc4)cc(Br)cc3[N+](=O)[O-])C3(CC3)C2)cc(=O)[nH]1` [Example 297], under setting [1], the IC50 is 10 to 50 nM.
For `CNc1cncc(C(=O)N2CC(Nc3c(C(=O)N4CCN(CCOC)CC4)cc(Br)cc3[N+](=O)[O-])C(F)(F)C2)c1` (centres unmarked) [Example 298], the IC50 under setting [1] is 10 to 50 nM.
Regarding `Cc1cc(C(=O)N2C[C@H](Nc3c(C(=O)NC4CCCCC4)cc(Br)cc3[N+](=O)[O-])C3(CC3)C2)cc(=O)[nH]1` [Example 299], the IC50 under setting [1] was in the range of 10 to 50 nM.
Regarding `Cc1cc(C(=O)N2CC(Nc3c(C(=O)N4CCN(C5CCCCC5)CC4)cc(Br)cc3[N+](=O)[O-])C(F)(F)C2)cc(=O)[nH]1` (centres unmarked) [Example 300], the IC50 under setting [1] is 10 to 50 nM.
Still for that read-out and setting: with `CNc1cncc(C(=O)NC[C@@H](COC)Nc2c(C(=O)N3CCCCC3)cc(Br)cc2[N+](=O)[O-])c1` [Example 301] the figure was 50 to 100 nM; with `NC(=O)c1cncc(C(=O)N2CCC[C@@H](Nc3c(C(=O)N4CCCCC4)cc(Br)cc3[N+](=O)[O-])C2)c1` [Example 302], 100 to 200 nM.
Still for that read-out and setting: the same measure for `CNc1cncc(C(=O)N2CCC[C@@H](Nc3c(C(=O)N4CC(O)CC(F)(F)C4)cc(Br)cc3[N+](=O)[O-])C2)c1` (some centres unmarked) [Example 303]: 10 to 50 nM; for `CNc1cncc(C(=O)N2CCC[C@@H](Nc3c(C(=O)N4Cc5cnn(C)c5C4)cc(Br)cc3[N+](=O)[O-])C2)c1` [Example 304]: 50 to 100 nM; for `CNc1cncc(C(=O)N2CCC[C@@H](Nc3c(C(=O)N4CCCOCC4)cc(Br)cc3[N+](=O)[O-])C2)c1` [Example 305]: 10 to 50 nM.
With `CNc1cncc(C(=O)N2C[C@H](Nc3c(C(=O)N4CCCCC4)cc(Br)cc3[N+](=O)[O-])[C@@H](OC)C2)c1` [Example 306], the IC50 under setting [1] lay within 10 to 50 nM.
Still for that read-out and setting: the same measure for `CNc1cncc(C(=O)N2CCC[C@@H](Nc3c(C(=O)N4CC(F)(F)CC(F)(F)C4)cc(Br)cc3[N+](=O)[O-])C2)c1` [Example 307]: 10 to 50 nM; for `CNc1cncc(C(=O)N2C[C@H](Nc3c(C(=O)N4CCCCC4)cc(Br)cc3[N+](=O)[O-])[C@H](OC)C2)c1` [Example 308]: 10 to 50 nM.
In the case of `CNc1cncc(C(=O)N2CCC[C@@H](Nc3c(C(=O)N4CCc5oncc5C4)cc(Br)cc3[N+](=O)[O-])C2)c1` [Example 309], the IC50 under setting [1] was 10 to 50 nM.
Still for that read-out and setting: the same measure for `CNc1cncc(C(=O)N2CCC[C@@H](Nc3c(C(=O)N4CCC=C(C)C4)cc(Br)cc3[N+](=O)[O-])C2)c1` [Example 310]: 10 to 50 nM; for `CNc1cncc(C(=O)N2CCC[C@@H](Nc3c(C(=O)N4CC=C(C)CC4)cc(Br)cc3[N+](=O)[O-])C2)c1` [Example 311]: 10 to 50 nM; for `CNc1cncc(C(=O)N2CCC[C@@H](Nc3c(C(=O)N4CCc5nn(C)cc5C4)cc(Br)cc3[N+](=O)[O-])C2)c1` [Example 313]: 10 to 50 nM.
In the case of `CNc1cncc(C(=O)N2CCC[C@@H](Nc3c(C(=O)N4CCn5cncc5C4)cc(Br)cc3[N+](=O)[O-])C2)c1` [Example 314], the IC50 under setting [1] was 10 to 50 nM.
Same read-out and setting: with `CNc1cncc(C(=O)N2CCC[C@@H](Nc3c(C(=O)N4CCc5ncsc5C4)cc(Br)cc3[N+](=O)[O-])C2)c1` [Example 315] the figure was 10 to 50 nM.
The same measure, in the same setting: the same measure for `CNc1cncc(C(=O)N2CCC[C@@H](Nc3c(C(=O)N4CCc5oc(C)nc5C4)cc(Br)cc3[N+](=O)[O-])C2)c1` [Example 316]: 10 to 50 nM.
As for `CNc1cncc(C(=O)N2CCC[C@@H](Nc3c(C(=O)N4CCC(C5CCOCC5)CC4)cc(Br)cc3[N+](=O)[O-])C2)c1` [Example 317], under setting [1], the IC50 lay in the range of 10 to 50 nM.
For `CNc1cncc(C(=O)N2C[C@H](Nc3c(C(=O)N4CCN(CCOC)CC4)cc(Br)cc3[N+](=O)[O-])C(C)(O)C2)c1` (some centres unmarked) [Example 318], under setting [1], the IC50 lay within 10 to 50 nM.
On the same count and under the same terms, with `CNc1cncc(C(=O)N2CCC[C@@H](Nc3c(C(=O)N4CCCCC4)cc(Br)cc3C(F)(F)F)C2)c1` [Example 319] the figure was 50 to 100 nM; with `CNc1cncc(C(=O)N2C[C@H](Nc3c(C(=O)N4CCO[C@H](C)C4)cc(Br)cc3[N+](=O)[O-])[C@@H](OC)C2)c1` [Example 322], 10 to 50 nM; with `CNc1cncc(C(=O)N2CCC[C@@H](Nc3c(C(=O)N4CCn5cccc5C4)cc(Br)cc3[N+](=O)[O-])C2)c1` [Example 323], 10 to 50 nM.
For `C=C1CNCC(C(=O)N2CCC[C@@H](Nc3c(C(=O)N4CCCCC4)cc(Br)cc3[N+](=O)[O-])C2)C1` (some centres unmarked) [Example 324], the IC50 under setting [1] was 100 to 200 nM.
As for `C[C@@H]1CN(C(=O)c2cc(Br)cc([N+](=O)[O-])c2N[C@@H]2CCCN(C(=O)[C@H]3CNCC(F)(F)C3)C2)C[C@H](C)O1` [Example 325], the IC50 under setting [1] is 10 to 50 nM.
Consider `CNc1ccc2c(C(=O)N3CCC[C@@H](Nc4c(C(=O)N5C[C@@H](C)O[C@@H](C)C5)cc(Br)cc4[N+](=O)[O-])C3)cncc2c1` [Example 326], for which the IC50 under setting [1] fell in the range of 10 to 50 nM.
Consider `O=C(c1cc(Br)cc([N+](=O)[O-])c1N[C@@H]1CCCN(C(=O)[C@H]2CNCC(F)(F)C2)C1)N1CCOC2(CC2)C1` [Example 328], for which the IC50 under setting [1] was 10 to 50 nM.
In the case of `C[C@@H]1CN(C(=O)c2cc(Br)cc([N+](=O)[O-])c2N[C@@H]2CCCN(C(=O)[C@H]3CNCC(F)(F)C3)C2)CCO1` [Example 329], the IC50 under setting [1] lay in the range of 10 to 50 nM.
With `O=C(c1cc(Br)cc([N+](=O)[O-])c1N[C@@H]1CCCN(C(=O)[C@H]2CNCC(F)(F)C2)C1)N1CCO[C@H](C(F)(F)F)C1` [Example 330], under setting [1], the IC50 was 10 to 50 nM.
The same measure, in the same setting: the same measure for `O=C(c1cc(Br)cc([N+](=O)[O-])c1N[C@@H]1CCCN(C(=O)[C@H]2CNCC(F)(F)C2)C1)N1CC2CCC(C1)O2` [Example 332]: 10 to 50 nM.
Turning to `O=C(c1cc(Br)cc([N+](=O)[O-])c1N[C@@H]1CCCN(C(=O)[C@H]2CNCC(F)(F)C2)C1)N1CCC2(CCCO2)CC1` [Example 333], the IC50 under setting [1] was in the range of 10 to 50 nM.
Same read-out and setting: with `CNc1cncc(C(=O)N2CCC[C@@H](Nc3c(C(=O)N4CCCOC(C)C4)cc(Br)cc3[N+](=O)[O-])C2)c1` (some centres unmarked) [Example 334] the figure was 10 to 50 nM.
On to `CNc1cncc(C(=O)N2CCC[C@@H](Nc3c(C(=O)N4CC5C=CC(C4)N5)cc(Br)cc3[N+](=O)[O-])C2)c1` [Example 335], for which, for the setting “IC50 (nM), Inhibition on SARS-CoV-2 3CLpro/Mpro protease”, the IC50 is 10 to 50 nM.
Take `CNc1cncc(C(=O)N2CCC[C@@H](Nc3c(C(=O)N4CC=CCC4)cc(Br)cc3[N+](=O)[O-])C2)c1` [Example 336, (R)-(5-Bromo-2-((1-(5-(methylamino)nicotinoyl)piperidin-3-yl)amino)-3-nitrophenyl)(3,6-dihydropyridin-1 (2H)-yl) methanone]: the IC50 under setting [1] is 10 to 50 nM.
On to `CNc1cncc(C(=O)N2CCC[C@@H](Nc3c(C(=O)N4CC=C(F)CC4)cc(Br)cc3[N+](=O)[O-])C2)c1` [Example 337, (R)-(5-Bromo-2-((1-(5-(methylamino)nicotinoyl)piperidin-3-yl)amino)-3-nitrophenyl)(4-fluoro-3,6-dihydropyridin-1 (2H)-yl)methanone], for which the IC50 under setting [1] lay in the range of 10 to 50 nM.
Regarding `CNc1cncc(C(=O)N2CCC[C@@H](Nc3c(C(=O)N4CCC5(CC4)CNCC(F)(F)O5)cc(Br)cc3[N+](=O)[O-])C2)c1` [Example 338], the IC50 under setting [1] was 10 to 50 nM.
Same read-out and setting: the same measure for `CNc1cncc(C(=O)N2CCC[C@@H](Nc3c(C(=O)N4CCC5(CC4)COC(C)(C)C5)cc(Br)cc3[N+](=O)[O-])C2)c1` [Example 339]: 10 to 50 nM; for `CNc1cncc(C(=O)N2CCC[C@@H](Nc3c(C(=O)N4CCOC(C)(C)C4)cc(Br)cc3[N+](=O)[O-])C2)c1` [Example 340]: 10 to 50 nM.
Still for that read-out and setting: with `CNc1cncc(C(=O)N2CCC[C@@H](Nc3c(C(=O)N4CCO[C@H](CCl)C4)cc(Br)cc3[N+](=O)[O-])C2)c1` [Example 341] the figure was 10 to 50 nM.
In the case of `CNc1cncc(C(=O)N2CCC[C@@H](Nc3c(C(=O)N4CCO[C@H](C5CC5)C4)cc(Br)cc3[N+](=O)[O-])C2)c1` [Example 342], under setting [1], the IC50 fell in the range of 10 to 50 nM.
Same read-out and setting: with `CNc1ccc2c(C(=O)N3CCC[C@@H](Nc4c(C(=O)N5C[C@@H](C)O[C@@H](C)C5)cc(Br)cc4[N+](=O)[O-])C3)cc(=O)[nH]c2c1` [Example 343] the figure was 10 to 50 nM; with `C=C[C@@H]1CN(C(=O)c2cc(Br)cc([N+](=O)[O-])c2N[C@@H]2CCCN(C(=O)c3cncc(NC)c3)C2)CCO1` [Example 344], 10 to 50 nM.
Same read-out and setting: with `CNc1cncc(C(=O)N2CCC[C@@H](Nc3c(C(=O)N4CC(C)O[C@H](C(F)(F)F)C4)cc(Br)cc3[N+](=O)[O-])C2)c1` (some centres unmarked) [Example 345] the figure was 10 to 50 nM; with `C#C[C@@H]1CN(C(=O)c2cc(Br)cc([N+](=O)[O-])c2N[C@@H]2CCCN(C(=O)c3cncc(NC)c3)C2)CCO1` [Example 346], 10 to 50 nM; with `[2H]C([2H])([2H])Nc1cncc(C(=O)N2CCC[C@@H](Nc3c(C(=O)N4C[C@@H](C)O[C@@H](C)C4)cc(Br)cc3[N+](=O)[O-])C2)c1` [Example 347], 10 to 50 nM.
The same measure, in the same setting: the same measure for `C[C@@H]1CN(C(=O)c2cc(Br)cc([N+](=O)[O-])c2N[C@@H]2CCCN(C(=O)[C@@H]3CCCOC3)C2)C[C@H](C)O1` [Example 348]: 10 to 50 nM.
In the case of `CNc1cncc(C(=O)N2CCC[C@@H](Nc3c(C(=O)N4C[C@@H](C)O[C@@H](C(F)(F)F)C4)cc(Br)cc3[N+](=O)[O-])C2)c1` [Example 349], under setting [1], the IC50 fell in the range of 10 to 50 nM.
Consider `CNc1cncc(C(=O)N2CCC[C@@H](Nc3c(C(=O)N4C[C@H](C)O[C@@H](C(F)(F)F)C4)cc(Br)cc3[N+](=O)[O-])C2)c1` [Example 350], for which, under setting [1], the IC50 lay within 50 to 100 nM.
Turning to `CNc1cncc(C(=O)N2CCC[C@@H](Nc3c(C(=O)N4CCOC5(CC5)C4)cc(Br)cc3[N+](=O)[O-])C2)c1` [Example 351], the IC50 under setting [1] was 10 to 50 nM.
On to `CNc1cncc(C(=O)N2CCC[C@@H](Nc3c(C(=O)N4CCn5ccnc5C4)cc(Br)cc3[N+](=O)[O-])C2)c1` [Example 352], for which the IC50 under setting [1] was 10 to 50 nM.
Same read-out and setting: the same measure for `[2H]C1([2H])CN(C(=O)c2cc(Br)cc([N+](=O)[O-])c2N[C@@H]2CCCN(C(=O)c3cncc(NC)c3)C2)CC([2H])([2H])O1` [Example 353]: 10 to 50 nM.
